# Measured values published in patent publication EP0014981A2, “Medicaments and pharmaceutical compositions with cytostatic activity” (Henkel Kommanditgesellschaft auf Aktien, priority 1979, dated 1980).
# Assays:
# Assay type in all cases: in vivo, Mäuse
# Coloncarcinom 26 = experiment: Colon carcinoma 26 i.p. in mice, survival; conditions: for Mäuse lebend, 60 Tage / alle Mäuse lebend (day up to which): groups of 10 mice
# Procedure: (§1) Die nachfolgenden Beispiele wurden durchgeführt nach Testvorschriften des National Cancer Institute Bethesda, Maryland 200014, veröffentlicht in "Cancer Chemotherapy Reports" Part. 3, Sept. '72, Vol. 3, Nr. 2. Als Wirksubstanz wurde verwendet α-Triglycidylisocyanurat (F 106° C) sowie β-Triglycidylisocyanurat (F 158 °C), beide mit 16,1 % Epoxidsauerstoffgehalt (Herstellung siehe US-PS 3,337,509).
# (§2) Alle wäßrigen 1 %igen Injektionslösungen wurden unmittelbar vor der Applikation frisch hergestellt.
# 8) Durch i.p. Inplantation (1 mm^3 Coloncarcinom 26) wurde bei Gruppen von jeweils 10 Mäusen ein Ca gesetzt Die Behandlung erfolgte durch i.p.-Verabfolgung von α-TGI. In der nachfolgenden Tabelle III sind die Ergebnisse in Abhängigkeit der jeweils am 1., 5. und 9. Tag applizierten Menge wiedergegeben.
# Sarcom 180 = experiment: Sarcoma 180 i.p. in mice, survival; conditions: 30 mg/kg i.p., days 1 to 9
# Procedure: as §1, §2
# Durch i.p-Verabfolgung von 10^6 Zellen pro Maus wurde das Sarcom 180 gesetzt. Die unbehandelte Kontrollgrüppe hatte eine mittlere überlebenszeit von 20, 2 Tagen.
# Ependymoblastom = experiment: Intracerebrally implanted ependymoblastoma in mice, survival; conditions: 40 mg/kg p.die, 9 days
# Procedure: as §1, §2
# Bei einer Testgruppe von Mäusen wurde durch intracerebra1 mm^3 eines Gewebes von Ependymoblastom implantiert. Die mittlere Überlebensdauer bei der Kontrollgruppe be- trug 19,3 Tage.
# Melanom B16 = experiment: Melanoma B 16 in mice, NCI instruction 1.300, survival; conditions: days 1 to 9
# Procedure: as §1, §2
# bei Mäusen wurde gemäß Anweisung 1.300 das 1/10 Homogenzt teranom B 16 jeweils 0,5 ml pro Maus i.p, verabfolgt gergl. S. 11 1,c.).
# Die Kontrollgruppe hatte eine mittlere Überlebenszeit von 15,3 Tagen (m.s.t.).
# Behandelte Gruppen erhielten vom 1. bis 9. Tag verschiedene Mengen α-TGI i.p. In der nachfolgenden Tabelle II ist die mittlere überlebensdauer und T/C in Ahhängigkeit der p.die gegebenen Menge Wirkstoff wiedergegeben.
# [1] = Tolerated maximum daily dose in mice, i.p. aqueous solutions; conditions: clear toxic effects only at higher doses
# Procedure: Im Tierexperiment hat sich die Verwendung von frisch hergestellten, wäßrigen Lösungen, die i.p. gegeben werden, als zweckmäßig erwiesen. Von α- beziehungsweise β-Triglycidylisocyanurat kann bei Mäusen die Maximaldosis p.die 100 mg/kg Maus betragen. Deutliche toxische Wirkungen treten erst bei höherer Dosierung auf. Als optimale Dosierung hat sich in vielen Fällen eine Gabe von 30 mg bis 60 mg/kg Maus während einer Applikationsdauer von 1 bis 9 Tagen bewährt.
# Lungencarcinom (Lewis) = experiment: Lewis lung carcinoma in mice, NCI protocol 1.400, inhibition of metastases; conditions: days 1 to 11, after 23 days
# Procedure: as §1, §2
# Gemäß Protokoll 1.400 (Seite 13 1.c.) wurden bei Mäusen Zellen, s.c. eines 1 mm^3 Stücks Lungencarcinom (Lewis) implantiert. Dann erfolgte vom 1. bis 11. Tag i.p. Verabfolgung von 40 mg/kg p.die an α-TGI bzw. 90 mg/kg p.die an β -TGI.
# Leukämie L 1210 = experiment: Leukaemia L 1210 in mice, NCI protocol 1.100, survival; conditions: for Überlebende / ganze Gruppe, leukäm. M. / Überlebende / ganze Gruppe, Kontrollgruppe: after 30 days; for Überlebende / ganze Gruppe, Kontrollgruppe: control group
# Procedure: as §1, §2
# Bei Mäusen wurde gemäß Protokoll 1.100 (Seite 7 1.c.) Leukämie L 1210 durch i.p. Verabreichung von 0,1 ml verdünnter Erregerlösung entsprechend 10^5 Zellen erzeugt. Bei der Kontrollgruppe betrug die mittlere Überlebensdauer 8 Tage (m.s.t.).
# B) Der Einfluß der Behandlungsplanung auf die therapeutische Wirksamkeit von α-TGI bei Tumor L 1210 nach 30 Tagen ist der nachfolgenden Tabelle I zu entnehmen.
# Coloncarcinom 38 = experiment: Colon carcinoma 38 s.c. in mice, tumour weight; conditions: after 20 days (control 512 mg/Maus)
# Procedure: as §1, §2
# A)Gruppen von 10 Mäusen wurde etwa 1 mm^3 Coloncarcinom 38 s.c. implantiert. Das mittlere Turaorgetuicht betrug bei der unbehandelten Kontrollgruppe nach 20 Tagen: 512mg/Maus.
# [2] = test system: Tumorart P 388 (Leucämie); experiment: Leukaemia P 388 in mice, NCI protocol 1 200, survival; conditions: for Heilung: % of animals
# Procedure: as §1, §2
# Bei Mäusen wurde gemäß Protokoll 1 200 (Seite 9 l.c.) die Tumorart P 388 (Leucämie) i.p. mit 10^6 Zellen/Maus ge- setzt. Die unbehandelten Tiere hatten eine mittlere Überlebensdauer von 10,5 Tagen.
# Bei Mäusen wurde gemäß Protokoll 1 200 (Seite 9 1.c.) die Tumorart P 388 Leucämie i.p. mit 10^6 Zellen/Maus gesetzt. Die unbehandelten Tiere hatten eine mittlere überlebensdauer von 10 Tagen.
# [3] = test system: gegenüber Cyclophosphamid (NSC 26271) resistente Leukämieform von P 388; experiment: Cyclophosphamide-resistant P 388 leukaemia in mice, survival; conditions: 10 mice
# Procedure: as §1, §2
# Eine gegenüber Cyclophosphamid (NSC 26271) resistente Leukämieform von P 388 wurde mit α-T3I und Cyclophosphamid behandelt. Jede Gruppe bestand aus 10 Mäusen.
# [4] = 50 mg/kg p.die i.p., days 1 to 9
# [5] = 50 mg/kg p.die i.p., days 1 to 9, group of 6 mice
# [6] = 100 mg/kg p.die i.p., days 1 to 9
compound,measurement,setting,value
"O=c1n(CC2CO2)c(=O)n(CC2CO2)c(=O)n1CC1CO1 (single isomer, unassigned) [α-TGI, α-Triglycidylisocyanurat]","Mäuse lebend, 60 Tage","Coloncarcinom 26; 25 mg i.p. on days 1, 5 and 9",6 von 10
same,alle Mäuse lebend (day up to which),"Coloncarcinom 26; 25 mg i.p. on days 1, 5 and 9",25 Tage
same,"Mäuse lebend, 60 Tage","Coloncarcinom 26; 50 mg i.p. on days 1, 5 and 9",60 Tage noch 10 Mäuse lebend
same,"Mäuse lebend, 60 Tage","Coloncarcinom 26; 100 mg i.p. on days 1, 5 and 9",4 Mäuse
same,alle Mäuse lebend (day up to which),"Coloncarcinom 26; 100 mg i.p. on days 1, 5 and 9",49 Tage
same,T/C,Sarcom 180,183%
same,T/C,Ependymoblastom,165%
same,T/C,Melanom B16; 25 mg p.die i.p.,227%
same,m. s. t. (Tage),Melanom B16; 25 mg p.die i.p.,"36,0 Tage"
same,T/C,Melanom B16; 50 mg p.die i.p.,234%
same,m. s. t. (Tage),Melanom B16; 50 mg p.die i.p.,"37,0 Tage"
same,T/C,"Melanom B16; 12,5 mg p.die i.p.",188%
same,m. s. t. (Tage),"Melanom B16; 12,5 mg p.die i.p.","29,8 Tage"
same,MTD,"[1]; mouse, in vivo, ip, read-out: Maximaldosis p.die",100 mg/kg/day
same,Hemmung an Metastasen gegenüber der Kontrollgruppe,Lungencarcinom (Lewis); 40 mg/kg p.die i.p.,92%
same,"Überlebende / ganze Gruppe, leukäm. M.",Leukämie L 1210; 40 mg 9x i.p. (1.bis 9.Tag),8/10
same,"Überlebende / ganze Gruppe, Kontrollgruppe",Leukämie L 1210; 40 mg 9x i.p. (1.bis 9.Tag),8/8
same,"Überlebende / ganze Gruppe, leukäm. M.",Leukämie L 1210; 50 mg 5x i.p. (1.bis 5.Tag),5/10
same,"Überlebende / ganze Gruppe, Kontrollgruppe",Leukämie L 1210; 50 mg 5x i.p. (1.bis 5.Tag),7/8
same,T/C,Leukämie L 1210; [4],297%
same,mittlere Überlebensdauer,Leukämie L 1210; [4],"23,8 Tage"
same,30 Tage erreichten,Leukämie L 1210; [5],3 Mäuse
same,Heilungsrate,Leukämie L 1210; [5],~50%
same,mittleres Tumorgewicht,"Coloncarcinom 38; 50 mg/kg p.die on days 2, 9 and 16",183 mg pro Maus
same,mittleres Tumorgewicht,Coloncarcinom 38; 50 mg/kg p.die on days 2 and 9,153 mg pro Maus
same,T/C,"[2]; 25 mg/kg p.die, 9 doses",196%
same,T/C,"[2]; 50 mg/kg p.die i.p., 9 days",200%
same,Heilung,"[2]; 50 mg/kg p.die, 9 days",17%
same,"T/C, Verlängerungsrate (mittlere Lebenserwartung gegenüber der Kontrollgruppe)","[2]; 100 mg/kg p.die i.p., 9 days",285%
same,behandelte Mäuse lebten länger als 40 Tage (als geheilt anzusehen),"[2]; 100 mg/kg p.die i.p., 9 days, fraction of treated mice",Die Hälfte
same,Mäuse überlebten 60 Tage,"[3]; 40 mg/kg, days 1 to 9",alle
same,T/C,"[3]; 40 mg/kg, days 1 to 9",478%
"O=c1n(CC2CO2)c(=O)n(CC2CO2)c(=O)n1CC1CO1 (single isomer, unassigned) [β-TGI, β-Triglycidylisocyanurat]",Maximaldosis p.die,[1],100 mg/kg Maus
same,Hemmung an Metastasen gegenüber der Kontrollgruppe,Lungencarcinom (Lewis); 90 mg/kg p.die i.p.,87%
same,T/C,Leukämie L 1210; [4],203%
same,mittlere Überlebensdauer,Leukämie L 1210; [4],"16,3 Tage"
same,T/C,Leukämie L 1210; [6],315%
same,mittlere Überlebensdauer,Leukämie L 1210; [6],"25,2 Tage"
same,T/C,"[2]; 25 mg/kg p.die, 9 doses",174%
same,T/C,"[2]; 50 mg/kg p.die i.p., 9 days",179%
same,Heilung,"[2]; 50 mg/kg p.die, 9 days",17%
same,"T/C, Verlängerungsrate (mittlere Lebenserwartung gegenüber der Kontrollgruppe)","[2]; 100 mg/kg p.die i.p., 9 days",228%
same,Heilung,"[2]; 100 mg/kg p.die, 9 days",17%
"O=P1(N(CCCl)CCCl)NCCCO1 (stereo not shown) [Cyclophosphamid, reference compound]",T/C,[3]; 180 mg/kg,150%
same,Überlebenszeit der behandelten Mäuse,[3]; 180 mg/kg,< 30 Tage
"O=c1[nH]cc(F)c(=O)[nH]1 [Fluoruracil, reference compound]",mittlere überlebensdauer,"Coloncarcinom 26; positive comparison, dose not given, 10 mice",55 Tage
same,Mäuse lebend am 60. Tag,"Coloncarcinom 26; positive comparison, dose not given, of 10 mice",2 Mäuse
CC1(Cn2c(=O)n(CC3(C)CO3)c(=O)n(CC3(C)CO3)c2=O)CO1 (stereo not shown) [Tri-(2-methylglycidyl)-isocyanurat],T/C,"[2]; 50 mg/kg p.die i.p., 9 days",150%
same,"T/C, Verlängerungsrate (mittlere Lebenserwartung gegenüber der Kontrollgruppe)","[2]; 100 mg/kg p.die i.p., 9 days",170%
